Where “and” joins values, the source holds several entries; their conditions need not be identical. Equal values may be shown once.
Assays:
[1] = system: NQO1 activation in BEAS-2B cells; test: BEAS-2B cellular MTT assay of NQO1 activation, 0% HSA; assay type: cell-based
Outline: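 BEAS-2B cells grown in BEBM with BEGM SingleQuots (no GA-1000), kept below 70% confluence, seeded on collagen plates at a density giving 95-100% confluence after 48 h. Plates seeded in medium without HSA (0% HSA condition).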

[2] = system: NQO1 activation in BEAS-2B cells; test: BEAS-2B cellular MTT assay of NQO1 activation, 0.3% HSA; assay type: cell-based
Outline: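 BEAS-2B cells (<70% confluent in culture, BEBM/SingleQuots without GA-1000) seeded in collagen plates with 0.3% or 0% HSA, reaching 95-100% confluency after 48 h at 37 °C, 5% CO2; MTT read-out.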

[3] = biological target: HIS-Keap1 full length / Biotin-Nrf2 (16-mer) (Homo sapiens, UniProt Q14145); test: biochemical
[4] = Homo sapiens, Serum Free W, read-out: BEAS EC50 (nM) Serum Free W
[5] = Serum Free W, read-out: BEAS EC50 (nM) Serum Free W
[6] = BEAS+ W, read-out: BEAS+ W EC50
[7] = Homo sapiens, BEAS+ W, read-out: BEAS+ W EC50
[8] = Homo sapiens, serum free, read-out: BEAS EC50 (nM) serum free
[9] = serum free, read-out: BEAS EC50 (nM) serum free
[10] = Homo sapiens, BEAS+, read-out: BEAS+ EC50

HIS-Keap1 full length / Biotin-Nrf2 (16-mer), sequence (Q14145 whole entry): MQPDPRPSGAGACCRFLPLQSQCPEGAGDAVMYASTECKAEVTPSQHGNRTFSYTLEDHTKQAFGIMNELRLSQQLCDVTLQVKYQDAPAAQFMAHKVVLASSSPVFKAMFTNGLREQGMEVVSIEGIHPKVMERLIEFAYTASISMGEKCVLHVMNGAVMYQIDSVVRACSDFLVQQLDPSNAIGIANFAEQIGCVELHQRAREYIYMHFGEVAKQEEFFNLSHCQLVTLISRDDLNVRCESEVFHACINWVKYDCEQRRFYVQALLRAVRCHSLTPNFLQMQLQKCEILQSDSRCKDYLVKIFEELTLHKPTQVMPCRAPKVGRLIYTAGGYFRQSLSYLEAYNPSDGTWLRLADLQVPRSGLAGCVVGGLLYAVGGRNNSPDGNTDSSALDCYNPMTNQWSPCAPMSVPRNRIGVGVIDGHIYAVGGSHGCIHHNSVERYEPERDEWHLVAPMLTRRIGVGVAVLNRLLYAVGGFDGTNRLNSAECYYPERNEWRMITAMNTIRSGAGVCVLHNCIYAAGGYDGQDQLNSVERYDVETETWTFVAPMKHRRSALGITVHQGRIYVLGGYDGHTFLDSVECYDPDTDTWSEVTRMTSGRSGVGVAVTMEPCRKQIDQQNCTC

Row | SMILES | EC50 [1, 4] | EC50 [1, 5] | EC50 [2, 6] | EC50 [2, 7] | IC50 [3] | EC50 [1, 8] | EC50 [1, 9] | EC50 ([2]; BEAS+, read-out: BEAS+ EC50) | EC50 [2, 10]
1 | Cc1c2cnc3c1nnn3CCCCCCc1cccc(c1)C(=O)N1CCc3ccc(cc3C1)C2CC(=O)O (stereo not shown) [Compound 355] | 810 nM | 1300 nM | 3860 nM | 4700 nM | 9.1 nM and 9.3 nM |  |  |  | 
2 | Cc1c2cnc3c1nnn3CCCC/C=C/Cc1ccc(cc1)C(=O)N1CCc3ccc(cc3C1)[C@@H]2CC(=O)O [Compound 353] | 16.8 nM | 19.1 nM | 109 nM | 72.3 nM | 0.5 nM |  |  |  | 
3 | Cc1c2ccc3c1nnn3CCCCCc1ccc(c3ncccc13)C(=O)N1CCc3ccc(cc3C1)[C@@H]2CC(=O)O [Compound 51] | 44.9 nM | 38.6 nM | 125 nM | 70.6 nM | 0.3 nM and 0.2 nM |  |  |  | 
4 | Cc1c2cnc3c1nnn3CCCCCc1cccc(c1)C(=O)N1CCc3ccc(cc3C1)C2CC(=O)O (stereo not shown) [Compound 354] | > 1000 nM |  | 2130 nM | 2700 nM | 20.1 nM and 13.8 nM |  |  |  | 
5 | Cc1c2ccc3c1nnn3CCCCCc1ccc(nc1)C(=O)N1CCc3ccc(cc3C1)C2CC(=O)O (stereo not shown) [Compound 228] |  |  |  |  | 1.3 nM | 524 nM | 471 nM | 667 nM | 771 nM
6 | Cc1c2ccc3c1nnn3CCCCCOc1ccc(c(Cl)c1)C(=O)N1CCc3ccc(cc3C1)C2CC(=O)O (stereo not shown) [Compound 302] |  |  |  |  | 0.8 nM and 0.9 nM | 129 nM | 213 nM | 196 nM | 134 nM
7 | CC(C)(C(=O)O)C1c2ccc3c(c2)CN(CC3)C(=O)c2ccc(cc2)CCCCCCn2nnc3cc1ccc32 (stereo not shown) [Compound 279] |  |  |  |  | 2.3 nM and 2.2 nM (2×) and 2.1 nM | 10.8 nM |  |  | 10.7 nM
8 | C[C@@H](C(=O)O)[C@@H]1c2ccc(nc2)OCCCCCc2cc(F)c(c(F)c2)C(=O)N2CCc3ccc1cc3C2 [Compound 164] |  |  |  |  | 51.2 nM and 59.3 nM | 16 nM | 20.3 nM | 34 nM | 32.6 nM
9 | Cc1c2ccc3c1nnn3CCCOCCOc1ccc(c(F)c1)C(=O)N1CCc3ccc(cc3C1)[C@@H]2[C@H](C)C(=O)O [Compound 369] |  |  |  |  | 13.2 nM and 14 nM | 2010 nM | 1930 nM | 2230 nM | 2080 nM
10 | Cc1c2cnc3c1nnn3CCCCCc1cc(F)c(c(F)c1)C(=O)N1CCc3ccc(cc3C1)C2CC(=O)O (stereo not shown) [Compound 168] |  |  |  |  | 2.2 nM | 1.3 nM | 1.2 nM | 3.4 nM | 3.7 nM
11 | Cc1c2ccc3c1nnn3CCCCCCc1ccc(c(F)c1)C(=O)N1CCc3ccc(cc3C1)[C@H]2[C@H](C)C(=O)O [Compound 166] | 1.1 nM |  | 2.7 nM and 2.9 nM and 4.2 nM | 2.2 nM | 0.7 nM and 0.6 nM |  |  |  | 
12 | Cc1cc2ccc1C(=O)N1CCc3ccc(cc3C1)C(CC(=O)O)c1ccc(nc1C)OCCCCC2 (stereo not shown) [Compound 149] |  |  |  |  | 9.4 nM and 7.4 nM | 74.3 nM | 67.8 nM | 89.3 nM | 103 nM
13 | Cn1c2cc3cc(cnc31)CCCCCn1nnc3c(Cl)c(ccc31)C(CC(=O)O)c1ccc3c(c1)CN(CC3)C2=O (stereo not shown) [Compound 174] |  |  |  |  | 2 nM and 2.1 nM | 5.8 nM | 7.3 nM | 15.5 nM | 29.4 nM
14 | Cn1cc2c3ccc(cc31)CCCCOc1ccc(cn1)C(CC(=O)O)c1ccc3c(c1)CN(CC3)C2=O (stereo not shown) [Compound 121] | > 1000 nM |  |  | > 10000 nM | > 990 nM |  |  |  | 
15 | Cc1c2ccc3c1nnn3CCCCCCc1ccc3c(c1)nc(n3C)C(=O)N1CCc3ccc(cc3C1)C2CC(=O)O (stereo not shown) [Compound 206] |  |  |  |  | 5.3 nM and 5.7 nM | 64 nM | 38.5 nM | 119 nM | 89.9 nM
16 | Cc1c2cnc3c1nnn3CCCCCCc1c(F)c(F)c(c(F)c1F)C(=O)N1CCc3ccc(cc3C1)[C@@H]2[C@@H](C)C(=O)O [Compound 36] | 35 nM | 36.7 nM | 95.4 nM | 184 nM | 12.7 nM and 2.5 nM |  |  |  | 
17 | Cc1cc2ncc1[C@H](CC(=O)O)c1ccc3c(c1)CN(CC3)C(=O)c1ccc(cc1)COCCCO2 [Compound 78] | 43 nM | 59.3 nM | 108 nM | 105 nM | 7.6 nM and 6 nM |  |  |  | 

Row | SMILES | EC50 [1, 4] | EC50 [1, 5] | EC50 [2, 6] | EC50 [2, 7] | IC50 [3] | EC50 [1, 8] | EC50 [1, 9] | EC50 ([2]; BEAS+, read-out: BEAS+ EC50) | EC50 [2, 10]
18 | Cc1cc2ncc1C(CC(=O)O)c1ccc3c(c1)CN(CC3)C(=O)c1ccc(cc1)OCCCCO2 (stereo not shown) [Compound 169] |  |  |  |  | 68.9 nM and 66.2 nM | 84.4 nM | 55.9 nM | 175 nM | 155 nM
19 | Cc1c2oc3cc(ccc13)OCCCCCn1nnc3c(C)c(ccc31)C(CC(=O)O)c1ccc3c(c1)CN(CC3)C2=O (stereo not shown) [Compound 401] |  |  |  |  | 6.1 nM and 6.5 nM |  |  |  | 7110 nM
20 | O=C(O)CC1c2ccc3c(c2)CN(CC3)C(=O)c2cccc(c2)OCCCCCCn2nnc3cc1ccc32 (stereo not shown) [Compound 403] |  |  |  |  | 146 nM and 192 nM |  |  |  | > 10000 nM
21 | O=C(O)CC1c2cnc(nc2)OCCCCCc2cc(F)c(c(F)c2)C(=O)N2CCc3ccc1cc3C2 (stereo not shown) [Compound 246] |  |  |  |  | 5.3 nM |  |  | 1490 nM | 992 nM
22 | COc1cc2ccc1C(=O)N1CCc3ccc(cc3C1)[C@@H](CC(=O)O)c1cnc3c(nnn3CCCCCC2)c1C [Compound 91] |  |  | 155 nM | 131 nM | 1.9 nM |  |  |  | 
23 | O=C(O)CC1c2cnc(nc2)OCCCCc2ccc(cc2Cl)C(=O)N2CCc3ccc1cc3C2 (stereo not shown) [Compound 221] |  |  |  |  | 216 nM |  |  |  | > 10000 nM
24 | Cc1cc2ccc1C(=O)N1CCc3ccc(cc3C1)C(CC(=O)O)c1ccc3c(nnn3CCCOCCO2)c1C (stereo not shown) [Compound 374] |  |  | 297 nM | 284 nM | 1 nM |  |  |  | 
25 | COC(=O)CC1c2ccc3c(c2)CN(CC3)C(=O)c2ccc(cc2C)OCCCCCn2nnc3cc1ccc32 (stereo not shown) [Compound 333] |  |  |  |  | 1820 nM and > 1000 nM and 1220 nM |  |  |  | > 10000 nM
26 | Cc1cc2cnc1OCCCCCc1ccc(cc1)C(=O)N1CCc3ccc(cc3C1)[C@H]2[C@@H](C)C(=O)O [Compound 76] |  |  |  | > 10000 nM | > 9900 nM |  |  |  | 
27 | Cc1c2ccc3c1nnn3CCC/C=C/COc1cnc(nc1)C(=O)N1CCc3ccc(cc3C1)C2CC(=O)O (stereo not shown) [Compound 400] |  |  |  |  | 2 nM |  |  | 29.3 nM | 31.6 nM
28 | Cc1c2ccc3c1nnn3CCCCCc1ccc(cc1)C(=O)N1CCc3ccc(cc3C1)[C@H]2[C@@H](C)C(=O)O [Compound 130] |  |  | 0.5 nM and 0.7 nM | < 0.5 nM | 0.6 nM and 0.4 nM |  |  |  | 
29 | O=C(O)CC1c2ccc3c(c2)CN(CC3)C(=O)c2ccc(cc2F)CCCCCCn2nnc3c(Cl)c1ccc32 (stereo not shown) [Compound 148] |  |  |  |  | 0.3 nM and 0.4 nM and 0.8 nM and 0.7 nM |  |  | 0.3 nM | 
30 | Cc1c2ccc3c1nnn3CCCOCCOc1cc(F)c(c(F)c1)C(=O)N1CCc3ccc(cc3C1)C2CC(=O)O (stereo not shown) [Compound 368, 2-(20,32-difluoro-34-methyl-22-oxo-14,17-dioxa-8,9,10,23-tetrazahexacyclo[21.5.3.218,21.13,7.06,10.026,30]tetratriaconta-1(29),3(34),4,6,8,18(33),19,21(32),26(30),27-decaen-2-yl)acetic Acid] |  |  |  |  | 0.1 nM and 0.2 nM |  |  | 140 nM | 114 nM
31 | Cc1c2oc3cc(ccc13)OCCCCCCn1nnc3c(C)c(ccc31)C(CC(=O)O)c1ccc3c(c1)CN(CC3)C2=O (stereo not shown) [Compound 402] |  |  |  |  | 58.7 nM and 57.7 nM |  |  |  | > 10000 nM
32 | Cc1c2ccc3c1nnn3CCCCc1ccc3ccc(cc3c1)C(=O)N1CCc3ccc(cc3C1)C2CC(=O)O (stereo not shown) [Compound 390] |  |  |  |  | 5.1 nM and 5.6 nM |  |  | 5770 nM | 3350 nM
33 | O=C(O)CC1c2cnc(nc2)OCCCCc2cc(F)c(c(F)c2)C(=O)N2CCc3ccc1cc3C2 (stereo not shown) [Compound 242] |  |  |  |  | > 1000 nM |  |  |  | > 10000 nM
34 | COc1cc2ccc1C(=O)N1CCc3ccc(cc3C1)C(CC(=O)O)c1cnc3c(nnn3CCCCC2)c1C (stereo not shown) [Compound 144] |  |  | 60.2 nM | 32.4 nM | 0.7 nM and 0.6 nM |  |  |  | 

Source: patent US12692274B2, “Tetrahydroisoquinoline derivatives for the treatment of red blood disorders and inflammatory diseases” (Sanofi, priority 2020, dated 2026)
